The source of these data is patent US8338420B1, “Treatment of Parkinson's disease and enhancement of dopamine signal using PDE 10 inhibitor” (Mitsubishi Tanabe Pharma Corporation, priority 2002, dated 2012).

In the test the test system is PDE10 (PDE10A). The experiment in a line: Measurement of PDE10 inhibitory activity (radiolabeled nucleotide PDE assay). It is filed as biochemical, bovine. Conditions: versus PDE1, 2, 3, 4, 5, 6, 7, 8, 9 and 11; IC50 value of 1/100 or less. An excerpt:
(1) Enzyme Preparation of PDE10 (PDE10A)
According to the methods described in Fujishige et al. (Fujishige et al., Eur. J. Biochem., vol. 266, pp. 1118-1127, 1999; and Mukai et al., Br. J. Pharmacol., vol. 111, pp. 389-390, 1994), the enzyme PDE10A was isolated and prepared as follows.
At first, corpus striatum was excised from bovine whole brain (Japanese Black Cattle, purchased from Tokyo Shibaura Zoki, co., Ltd.), and washed with ice-cold saline (0.9% sodium chloride). After the tissues were cut in a proper size, it was frozen by liquid nitrogen, and stored at −80° C. […]
The PDE assay was performed using the enzyme solution obtained in the above (1), and inhibitory activities of the compounds on PDE10 (PDE10A) were measured. […]
After the reaction was carried out while keeping the temperature at 37° C. for 30 minutes, the reaction was stopped by boiling the reaction mixture for 2 minutes, and further added thereto was 100 μl of snake venom (Crotalus atrox snake venom 1 mg/ml) and the temperature was kept at 37° C. for 30 minutes. […] Scintillation cocktail was added to each of the eluates, and the radioactivity was measured by scintillation counter. From them, PDE activity taking cAMP as a substrate (an activity to hydrolyze cAMP) was measured. […]

Regarding `COc1ccc(-c2cc(N3CCCC3)nc(/C=C/c3nc(-n4ccnc4)c4ccccc4n3)n2)cc1OC` [Compound A, 2-{(E)-2-[4-(1-imidazolyl)-quinazolin-2-yl]}ethenyl-4-(3,4-dimethoxy)phenyl-6-(pyrrolidin-1-yl)pyrimidine], the “inhibitory activity on PDE10 as compared to other PDE families (selectivity)” value is not below 100 times.
